Assays:
[1] = biological target: β-lactamase from Proteus mirabilis C889; assay: β-lactamase inhibition I50; format: biochemical
Protocol: (§1) The I50 values obtained for the product of this example against certain common gram positive and gram negative bacteria were as follows:
(§2) The compound from Example 1 was a potent inhibitor of β-lactamase enzymes as illustrated in the following Table. I50 values were determined using the process described in Belgium Pat. No. 827,926.

[2] = biological target: T1, β-lactamase from E. coli JT4 (Escherichia coli, UniProt P62593); assay: β-lactamase inhibition I50; format: biochemical
T1 construct: host or cells: E. coli JT4 (the producing strain)
T1 sequence (P62593 24-286 limits assumed): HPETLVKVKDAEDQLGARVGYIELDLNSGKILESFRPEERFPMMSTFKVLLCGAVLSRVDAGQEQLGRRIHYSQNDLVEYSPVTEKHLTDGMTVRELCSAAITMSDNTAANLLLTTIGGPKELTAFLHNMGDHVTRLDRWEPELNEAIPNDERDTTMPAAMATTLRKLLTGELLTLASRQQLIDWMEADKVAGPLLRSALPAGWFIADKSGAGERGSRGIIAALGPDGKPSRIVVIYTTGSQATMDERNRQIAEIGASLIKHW
Protocol: as §1, §2

[3] = biological target: T2, β-lactamase from Enterobacter cloacae P99 (Enterobacter cloacae, UniProt P05364); assay: β-lactamase inhibition I50; format: biochemical
T2 construct: host or cells: Enterobacter cloacae P99 (the producing strain)
T2 sequence (P05364 21-381): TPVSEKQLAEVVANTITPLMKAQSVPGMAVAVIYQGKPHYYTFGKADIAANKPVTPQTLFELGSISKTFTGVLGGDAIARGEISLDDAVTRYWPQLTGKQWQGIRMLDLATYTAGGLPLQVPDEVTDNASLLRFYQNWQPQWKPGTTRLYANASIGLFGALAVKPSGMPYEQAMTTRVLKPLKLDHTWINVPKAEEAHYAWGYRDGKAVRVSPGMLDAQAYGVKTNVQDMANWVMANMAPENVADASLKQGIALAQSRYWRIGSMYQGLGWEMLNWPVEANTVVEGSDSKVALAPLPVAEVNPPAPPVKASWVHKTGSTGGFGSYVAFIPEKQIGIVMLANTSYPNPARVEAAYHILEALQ
Protocol: as §1, §2

[4] = Stability when free of solvent; format: physicochemical
Protocol: The compound of the formula (V) tends to polymerise when free of solvent at room temperature so that it must either be stored in solution (optionally with hydroquinone) or at a low temperature. Preferably the compound of the formula (V) is used shortly after its preparation.
For determination of spectroscopic and biological properties aliquots of the toluene solution were treated in a manner similar to that described above for measurement of the nmr spectrum. The title compound was characterised by the following spectroscopic properties. λmax (EtOH): 277.5 nm. .nu.max (CHCl3): 1797 (β-lactam C= O ), 1670 and 1640 (C=C)cm^-1. δ (CDCl3): 3.36 (d, J 17Hz, 1H, C(6)H), 3.63 (dd, J 17, 2Hz, 1H, C(6)H), 5.22 (dd, J 10.5, 1.0Hz, 1H, olefinic H), 5.49 (dd, J 16, 1.0Hz, 1H, olefinic H), 5.80 (s, 2H, C(5)H and C(2)H), 6.10 (dd, J 16, 10.5Hz, 1H, olefinic H).

[5] = biological target: β-lactamase from Pseudomonas aeruginosa A; assay: β-lactamase inhibition I50; format: biochemical
Protocol: as §2

[6] = biological target: T3, β-lactamase from Ps. aeruginosa Dalgleish (Pseudomonas aeruginosa, UniProt P16897); assay: β-lactamase inhibition I50; format: biochemical
T3 construct: host or cells: Pseudomonas aeruginosa Dalgleish (the producing strain)
T3 sequence (P16897 18-288): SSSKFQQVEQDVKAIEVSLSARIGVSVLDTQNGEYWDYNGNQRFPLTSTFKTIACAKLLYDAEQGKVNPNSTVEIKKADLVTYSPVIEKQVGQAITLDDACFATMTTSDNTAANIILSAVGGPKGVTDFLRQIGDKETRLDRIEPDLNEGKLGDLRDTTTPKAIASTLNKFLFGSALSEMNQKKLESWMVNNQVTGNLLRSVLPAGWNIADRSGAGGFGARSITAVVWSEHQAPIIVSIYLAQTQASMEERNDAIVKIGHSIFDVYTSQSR
Protocol: as §2

[7] = biological target: lactamase from Ps. aeruginosa; assay: β-lactamase inhibition I50; format: biochemical; design: unit not given here
From the text: The I50 values obtained for the product of this example against certain common gram positive and gram negative bacteria were as follows: […]

[8] = system: Candida albicans BRL 1003; assay: Antifungal activity, paper tape on seeded blood agar base plate; format: cell-based; details: BRL1003; loading of 250 μg on paper tape, Candida albicans BRL 1003, 28° C., 24 hours; read-out: zone of inhibition diameter
Protocol: The Z-isomer is able to inhibit the growth of Candida albicans. Thus, a loading of 250 μg of the Z-isomer on a paper tape which was contacted with a blood agar base plate seeded with Candida albicans BRL 1003 and incubated at 28° C. for 24 hours produced a zone of inhibition with diameter 22.1 mm.

Structure (SMILES)	I50 [1] [µg/mL]	IC50 [2] [nM]	IC50 ([3]; β-lactamase from Enterobacter cloacae P99) [nM]	stability when free of solvent [4]	I50 [5] [µg/mL]	IC50 [6] [nM]	I50 [7]	IC50 ([3]; lactamase from Enterobacter cloacae P 99) [nM]	zone of inhibition at 250 µg/disc [8] [mm]
C=CC1=CN2C(=O)C[C@H]2O1 [Example 1, (5R)-7-oxo-3-vinyl-4-oxa-1-azabicyclo[3.2.0]hept-2-ene]	0.058	408	190	readily polymerises	0.06	292			
CC=C1CN2C(=O)C[C@H]2O1 [Example 4, (5R)-3-ethylidene-4-oxa-1-azabicyclo[3.2.0]heptan-7-one]	1.6	1580					0.86	2010	
C/C=C1/CN2C(=O)C[C@H]2O1 [Z-isomer, Z-(5R)-3-ethylidene-4-oxa-1-azabicyclo[3.2.0]heptan-7-one]									22.1

Source: patent US4145430A, “Beta-lactam compounds, preparation and use” (Beecham Group Limited, priority 1977, dated 1979)
